ChEMBL document CHEMBL3045149, “Antifeedant activity of dihydro--agarofuran sesquiterpenes from Celastraceae against Spodoptera littoralis” (1992)

Experiments:
Type in all cases: functional
[1] = tested on: Spodoptera littoralis; assay: Antifeedant activity against Spodoptera littoralis fifth-instar larvae reared on compound exposed lettuce disks assessed as feeding ratio when 50% of control leaf disk area consumed at 0.1 ug/cm2 measured for 4 to 5 hr by leaf disk choice method
[2] = tested on: Spodoptera littoralis; assay: Antifeedant activity against Spodoptera littoralis fifth-instar larvae reared on compound exposed lettuce disks assessed as feeding ratio when 50% of control leaf disk area consumed at 1 ug/cm2 measured for 4 to 5 hr by leaf disk choice method
[3] = tested on: Spodoptera littoralis; assay: Antifeedant activity against Spodoptera littoralis fifth-instar larvae reared on compound exposed lettuce disks assessed as feeding ratio when 50% of control leaf disk area consumed at 10 ug/cm2 measured for 4 to 5 hr by leaf disk choice method
[4] = tested on: Spodoptera littoralis; assay: Antifeedant activity against Spodoptera littoralis fifth-instar larvae reared on compound exposed lettuce disks assessed as leaf disk protection at 10 to 1 ug/cm2 measured for 4 to 5 hr by leaf disk choice method

Molecule	FR50 [1]	FR50 [2]	FR50 [3]	Activity [4] [%]
CCC(C)C(=O)O[C@H]1[C@H](OC(C)=O)C[C@@H]2[C@@](C)([C@@H]3C[C@H]4CCO[C@H]4O3)[C@H](C)C[C@H](OC(C)=O)[C@@]2(COC(C)=O)[C@@]12CO2 (stereo partly drawn) [2-acetyl-14,15-dihydroajugapitin]	0.62			
CC(=O)OC[C@@]12[C@@H](OC(=O)c3ccccc3)CC[C@](C)(O)[C@]13OC(C)(C)[C@H]([C@@H](OC(C)=O)[C@H]2OC(=O)c1ccccc1)[C@H]3OC(C)=O		0.58	0.24	
CC(=O)O[C@H]1[C@@H]2[C@@H](OC(=O)c3cccnc3)[C@@]3(OC2(C)C)[C@@](C)([C@@H](OC(=O)c2ccccc2)CC[C@]3(C)O)[C@@H]1OC(C)=O	0.45	0.15	0.04	100
CC(=O)OC[C@]12[C@@H](OC(=O)c3ccccc3)C[C@@H]3[C@@H](OC(C)=O)[C@]1(OC3(C)C)[C@H](C)C[C@H](OC(C)=O)[C@@H]2OC(C)=O		0.54	0.19	
CC(=O)O[C@@H]1[C@@H]2[C@@H](OC(C)=O)[C@]3(OC2(C)C)[C@H](C)C[C@H](OC(C)=O)[C@H](OC(C)=O)[C@@]3(CO)[C@@H]1OC(=O)c1ccccc1		0.65	0.16	
CC(=O)O[C@H]1[C@@H]2C[C@@]3(OC2(C)C)[C@](C)([C@H]1OC(=O)c1ccccc1)[C@@H](OC(=O)c1ccccc1)[C@H](OC(C)=O)[C@H](OC(C)=O)[C@]3(C)O [2BETA,3BETA,4BETA-TRIHYDROXYCELAPANOL]			0.38	
TRIPHENYLSTANNYL ACETATE			0.37	
CC(=O)O[C@H]1[C@@H]2[C@@H](OC(C)=O)[C@@]3(OC2(C)C)[C@@](C)([C@@H](OC(=O)c2ccccc2)CC[C@]3(C)O)[C@@H]1OC(C)=O		0.4	0.12	
CC[C@H](C)C(=O)O[C@H]1[C@H](O)C[C@@H]2[C@@](C)([C@@H]3C[C@H]4CCO[C@H]4O3)[C@H](C)C[C@H](OC(C)=O)[C@@]2(COC(C)=O)[C@@]12CO2 [14,15-DIHYDROAJUGAPITIN]	0.32			
CC(=O)OC[C@]12[C@@H](OC(=O)c3ccccc3)[C@H](OC(C)=O)[C@@H]3[C@@H](OC(C)=O)[C@]1(OC3(C)C)[C@H](C)C[C@H](OC(C)=O)[C@@H]2OC(C)=O		0.71	0.13	
CC(=O)O[C@H]1C[C@@H](C)[C@]23OC(C)(C)[C@H](C[C@H](OC(=O)c4ccccc4)[C@]2(CO)[C@H]1OC(C)=O)[C@H]3OC(C)=O			0.36	
CC(=O)O[C@@H]1[C@@H]2[C@@H](OC(C)=O)[C@]3(OC2(C)C)[C@H](C)C[C@H](OC(C)=O)[C@H](OC(C)=O)[C@@]3(CO)[C@H]1OC(=O)c1ccccc1		0.53	0.07	
CCC(C)C(=O)O[C@H]1[C@H](O)C[C@@H]2[C@@](C)([C@@H]3C[C@H]4C=CO[C@H]4O3)[C@H](C)C[C@H](OC(C)=O)[C@@]2(COC(C)=O)[C@@]12CO2 (stereo partly drawn) [AJUGAPITIN]	0.41			
CC(=O)O[C@@H]1[C@@H](O)[C@@H]2[C@@H](OC(=O)c3cccnc3)[C@@]3(OC2(C)C)[C@@]1(C)[C@@H](OC(=O)c1ccccc1)CC[C@]3(C)O			0.74	
CC(=O)O[C@H]1C[C@@H]2[C@@H](OC(=O)c3cccnc3)[C@@]3(OC2(C)C)[C@@]1(C)[C@@H](OC(=O)c1ccccc1)CC[C@]3(C)O			0.68	
CC(=O)OC[C@@]12[C@@H](OC(=O)/C=C/c3ccccc3)CC[C@](C)(O)[C@]13OC(C)(C)[C@H]([C@@H](OC(C)=O)[C@H]2OC(=O)c1ccccc1)[C@H]3OC(C)=O			0.27	
CC(=O)O[C@H]1[C@H](OC(=O)c2ccccc2)[C@@]2(C)[C@@H](OC(=O)c3ccccc3)C[C@@H]3[C@@H](OC(C)=O)[C@]2(OC3(C)C)[C@@](C)(O)[C@H]1O [2BETA,3BETA,4BETA,TRIHYDROXYCELARBICO]		0.44	0.24	
CC(=O)OC[C@]12[C@H](OC(=O)c3ccccc3)[C@H](OC(C)=O)[C@@H]3[C@@H](OC(C)=O)[C@]1(OC3(C)C)[C@@](C)(O)C[C@H](OC(C)=O)[C@@H]2OC(=O)c1ccccc1			0.35	
